Measurements taken from patent publication US20250114345A1, “COMPOUNDS AND COMPOSITIONS AS CBP/P300 DEGRADERS AND USES THEREOF” (Oncopia Therapeutics, Inc. d/b/a/ SK Life Science Labs, priority 2023, published 2025).

Target: T1, p300 (Homo sapiens, UniProt Q09472)
T1 construct: host or cells: A549 P300 HiBit cells
Assay: P300 degradation, HiBit technology in A549 P300 HiBit cells (2 h)
Format: cell-based
Settings: 2 hrs post treatment; for Dmax: A549, A549 P300 HiBit cells; for DC50: A549 P300 HiBit cells
Experimental: p300 and CBP degradation potency and Dmax were determined using in cell western (ICW) assay technology in H1299 cells or HiBit technology in A549 HiBit cells.
A549 P300 HiBit and A549 CBP HiBit cells were plated in separate 384-well, TC treated, white-opaque, flat-bottomed microplate. Cells were plated at a cell density of 0.2×10^4 cells per well in assay media comprised of F-12K, 10% heat inactivated FBS, and 1% penicillin/streptomycin. Assay microplates containing HiBit cells were placed in a 37° C., 5% CO2, tissue culture incubator and left to equilibrate overnight. The next day cells were treated with serial dilutions of test compound made up of 10 mM stock solutions in DMSO. 384-Well plates containing treated cells were then placed back into a 37° C., 5% CO2, tissue culture incubator. Assay microplates containing A549 P300 HiBit cells were incubated for 2 hrs post treatment before P300 destruction was assessed, while microplates containing A549 CBP HiBit cells were incubated for 24 hrs post treatment before CBP destruction was determined. On the day of each assay time point, microplates were removed from the tissue culture incubator and prepared HiBit Lytic detection buffer (Promega, cat #N3O40) was added to each plate. Plates were covered with aluminum foil and incubated for ten minutes at room temperature on an orbital shaker. After incubation, luminescent signal of each plate was measured using the Envision instrument (Perkin Elmer).

T1 sequence (Q09472 whole entry): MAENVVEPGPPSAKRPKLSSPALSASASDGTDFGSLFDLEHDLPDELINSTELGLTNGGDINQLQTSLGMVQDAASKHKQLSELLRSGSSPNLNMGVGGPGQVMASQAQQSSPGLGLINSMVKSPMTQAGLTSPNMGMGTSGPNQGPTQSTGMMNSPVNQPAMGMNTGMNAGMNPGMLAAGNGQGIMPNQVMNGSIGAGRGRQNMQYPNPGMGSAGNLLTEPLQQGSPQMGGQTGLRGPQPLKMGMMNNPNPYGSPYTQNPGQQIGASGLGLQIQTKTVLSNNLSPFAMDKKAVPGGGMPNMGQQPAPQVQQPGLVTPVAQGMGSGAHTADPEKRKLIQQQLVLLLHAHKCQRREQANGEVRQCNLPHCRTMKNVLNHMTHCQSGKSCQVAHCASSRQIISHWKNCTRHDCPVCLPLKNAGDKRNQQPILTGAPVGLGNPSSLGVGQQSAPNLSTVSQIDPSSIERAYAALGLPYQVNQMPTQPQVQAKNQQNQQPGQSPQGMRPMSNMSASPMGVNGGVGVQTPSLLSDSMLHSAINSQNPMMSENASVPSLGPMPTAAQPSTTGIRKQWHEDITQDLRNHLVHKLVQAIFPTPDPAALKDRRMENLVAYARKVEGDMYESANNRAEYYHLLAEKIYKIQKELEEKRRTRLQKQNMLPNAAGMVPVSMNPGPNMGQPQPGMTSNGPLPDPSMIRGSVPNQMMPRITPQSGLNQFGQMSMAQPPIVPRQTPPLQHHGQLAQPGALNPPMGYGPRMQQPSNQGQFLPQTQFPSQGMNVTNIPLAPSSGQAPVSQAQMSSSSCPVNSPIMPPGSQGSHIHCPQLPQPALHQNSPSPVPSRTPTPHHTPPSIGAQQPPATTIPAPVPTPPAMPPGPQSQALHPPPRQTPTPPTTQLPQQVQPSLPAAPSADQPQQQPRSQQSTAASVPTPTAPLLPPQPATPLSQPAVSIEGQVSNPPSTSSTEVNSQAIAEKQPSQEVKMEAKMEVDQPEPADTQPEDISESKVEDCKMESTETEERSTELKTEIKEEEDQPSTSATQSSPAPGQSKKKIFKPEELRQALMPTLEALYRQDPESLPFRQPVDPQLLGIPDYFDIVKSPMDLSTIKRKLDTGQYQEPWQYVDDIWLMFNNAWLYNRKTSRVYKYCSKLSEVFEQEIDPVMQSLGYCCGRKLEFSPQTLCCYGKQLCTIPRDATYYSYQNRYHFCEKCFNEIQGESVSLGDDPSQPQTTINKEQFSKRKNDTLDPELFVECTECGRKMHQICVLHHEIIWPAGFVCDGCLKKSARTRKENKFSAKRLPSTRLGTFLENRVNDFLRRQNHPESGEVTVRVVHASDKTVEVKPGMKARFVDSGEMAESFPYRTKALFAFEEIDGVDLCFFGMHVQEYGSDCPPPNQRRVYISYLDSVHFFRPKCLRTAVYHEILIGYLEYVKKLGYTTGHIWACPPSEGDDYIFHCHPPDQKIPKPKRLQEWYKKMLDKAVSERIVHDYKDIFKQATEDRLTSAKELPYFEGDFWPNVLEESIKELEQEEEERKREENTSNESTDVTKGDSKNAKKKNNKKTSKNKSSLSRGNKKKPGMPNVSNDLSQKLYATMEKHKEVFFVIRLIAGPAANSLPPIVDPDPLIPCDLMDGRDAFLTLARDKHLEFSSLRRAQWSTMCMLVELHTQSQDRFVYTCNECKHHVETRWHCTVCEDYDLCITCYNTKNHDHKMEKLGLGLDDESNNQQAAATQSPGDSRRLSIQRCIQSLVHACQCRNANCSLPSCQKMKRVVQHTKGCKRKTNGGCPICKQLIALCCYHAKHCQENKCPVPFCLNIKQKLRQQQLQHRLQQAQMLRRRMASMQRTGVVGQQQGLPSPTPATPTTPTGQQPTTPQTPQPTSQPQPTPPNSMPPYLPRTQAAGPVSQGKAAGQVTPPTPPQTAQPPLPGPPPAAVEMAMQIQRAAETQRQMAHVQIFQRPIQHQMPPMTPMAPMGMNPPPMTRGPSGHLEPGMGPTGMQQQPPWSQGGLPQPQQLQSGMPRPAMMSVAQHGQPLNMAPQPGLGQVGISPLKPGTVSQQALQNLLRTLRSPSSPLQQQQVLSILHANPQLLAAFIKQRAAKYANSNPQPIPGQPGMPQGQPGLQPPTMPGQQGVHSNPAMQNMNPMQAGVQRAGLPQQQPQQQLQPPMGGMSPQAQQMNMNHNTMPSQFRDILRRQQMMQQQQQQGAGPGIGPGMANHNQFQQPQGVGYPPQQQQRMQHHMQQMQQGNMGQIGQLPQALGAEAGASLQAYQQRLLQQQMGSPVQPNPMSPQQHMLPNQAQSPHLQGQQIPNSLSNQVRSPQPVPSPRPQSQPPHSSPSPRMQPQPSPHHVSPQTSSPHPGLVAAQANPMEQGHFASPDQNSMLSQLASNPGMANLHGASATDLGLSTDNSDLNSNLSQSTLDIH

SMILES	Dmax	DC50
COc1cc(-c2cc3cccc(-c4cc(C(C)C)c5c(c4)n(C)c(=O)n5C)c3cn2)cnc1C(=O)NCC#Cc1ccc2c(c1)c(C1CCC(=O)NC1=O)nn2C (stereo not drawn) [Example A30, N-(3-(3-(2,6-Dioxopiperidin-3-yl)-1-methyl-1H-indazol-5-yl)prop-2-yn-1-yl)-5-(8-(7-isopropyl-1,3-dimethyl-2-oxo-2,3-dihydro-1H-benzo[d]imidazol-5-yl)isoquinolin-3-yl)-3-methoxypicolinamide]	> 80%	1 to 9.9 nM
CC(C)c1cc(-c2cccc3cc(-c4ccc(C(=O)NCC#Cc5ccc6c(C(F)F)nn(C7CCC(=O)NC7=O)c6c5)nc4)ncc23)cc2c1n(C)c(=O)n2C (stereo not drawn) [Example A31, N-(3-(3-(Difluoromethyl)-1-(2,6-dioxopiperidin-3-yl)-1H-indazol-6-yl)prop-2-yn-1-yl)-5-(8-(7-isopropyl-1,3-dimethyl-2-oxo-2,3-dihydro-1H-benzo[d]imidazol-5-yl)isoquinolin-3-yl)picolinamide]	20 to 39%	1 to 9.9 nM
CC(C)c1cc(-c2cccc3cc(-c4ccc(C(=O)NCC#Cc5cc6c(c(NC7CCC(=O)NC7=O)c5)OCC6)nc4)ncc23)cc2c1n(C)c(=O)n2C (stereo not drawn) [Example A32, N-(3-(7-((2,6-Dioxopiperidin-3-yl)amino)-2,3-dihydrobenzofuran-5-yl)prop-2-yn-1-yl)-5-(8-(7-isopropyl-1,3-dimethyl-2-oxo-2,3-dihydro-1H-benzo[d]imidazol-5-yl)isoquinolin-3-yl)picolinamide]	> 80%	1 to 9.9 nM
CC(C)c1cc(-c2cccc3cc(-c4ccc(C(=O)NCc5ccc(-c6cnn(C7CCC(=O)NC7=O)c6)cc5)nc4)ncc23)cc2c1n(C)c(=O)n2C (stereo not drawn) [Example A33, N-(4-(1-(2,6-Dioxopiperidin-3-yl)-1H-pyrazol-4-yl)benzyl)-5-(8-(7-isopropyl-1,3-dimethyl-2-oxo-2,3-dihydro-1H-benzo[d]imidazol-5-yl)isoquinolin-3-yl)picolinamide]	< 20%	> 1000 nM
CC(C)c1cc(N2CCCc3cc(-c4ccc(C(=O)NCc5ccc(-c6ccn(C7CCC(=O)NC7=O)n6)cc5)nc4)c(C(F)F)cc32)cc2c1n(C)c(=O)n2C (stereo not drawn) [Example A37, 5-(7-(Difluoromethyl)-1-(7-isopropyl-1,3-dimethyl-2-oxo-2,3-dihydro-1H-benzo[d]imidazol-5-yl)-1,2,3,4-tetrahydroquinolin-6-yl)-N-(4-(1-(2,6-dioxopiperidin-3-yl)-1H-pyrazol-3-yl)benzyl)picolinamide]	< 20%	> 1000 nM
CC(C)c1cc(-c2cccc3cc(-c4ccc(C(=O)NCC#Cc5ccc6c(c5)ncn6C5CCC(=O)NC5=O)nc4)ncc23)cc2c1n(C)c(=O)n2C (stereo not drawn) [Example A38, N-(3-(1-(2,6-Dioxopiperidin-3-yl)-1H-benzo[d]imidazol-5-yl)prop-2-yn-1-yl)-5-(8-(7-isopropyl-1,3-dimethyl-2-oxo-2,3-dihydro-1H-benzo[d]imidazol-5-yl)isoquinolin-3-yl)picolinamide]	< 20%	> 1000 nM
Cc1cc(-c2ccc(N(C)c3cc(C4=CCOCC4)c4c(c3)n(C)c(=O)n4C)cn2)cnc1C(=O)NCC#Cc1cccc(NC2CCC(=O)NC2=O)c1 (stereo not drawn) [Example A40, 5-((7-(3,6-dihydro-2H-pyran-4-yl)-1,3-dimethyl-2-oxo-2,3-dihydro-1H-benzo[d]imidazol-5-yl)(methyl)amino)-N-(3-(3-((2,6-dioxopiperidin-3-yl)amino)phenyl)prop-2-yn-1-yl)-5′-methyl-[2,3′-bipyridine]-6′-carboxamide]	> 80%	1 to 9.9 nM
Cc1cc(-c2ccc(N(C)c3cc(C(C)C)c4c(c3)n(C)c(=O)n4C)cc2C(F)F)cnc1C(=O)NCC#Cc1cccc(NC2CCC(=O)NC2=O)c1 (stereo not drawn) [Example A41, 5-(2-(difluoromethyl)-4-((7-isopropyl-1,3-dimethyl-2-oxo-2,3-dihydro-1H-benzo[d]imidazol-5-yl) (methyl)amino)phenyl)-N-(3-(3-((2,6-dioxopiperidin-3-yl)amino)phenyl)-prop-2-yn-1-yl)-3-methylpicolinamide]	> 80%	10 to 99 nM
Cc1cc(-n2ccc(N(C)c3cc(C(C)C)c4c(c3)n(C)c(=O)n4C)cc2=O)cnc1C(=O)NCC#Cc1cccc(NC2CCC(=O)NC2=O)c1 (stereo not drawn) [Example A42, N-(3-(3-((2,6-dioxopiperidin-3-yl)amino)phenyl)prop-2-yn-1-yl)-4-((7-isopropyl-1,3-dimethyl-2-oxo-2,3-dihydro-1H-benzo [d]imidazol-5-yl)(methyl)amino)-5′-methyl-2-oxo-2H-[1,3′-bipyridine]-6′-carboxamide]	> 80%	1 to 9.9 nM
Cc1cc(-c2ccc(N(C)c3cc(C(C)C)c4c(c3)n(C)c(=O)n4C)cc2)cnc1C(=O)NCC#Cc1cccc(NC2CCC(=O)NC2=O)c1 (stereo not drawn) [Example A43, N-(3-(3-((2,6-dioxopiperidin-3-yl)amino)phenyl)prop-2-yn-1-yl)-5-(4-((7-isopropyl-1,3-dimethyl-2-oxo-2,3-dihydro-1H-benzo [d]imidazol-5-yl) (methyl)amino)phenyl)-3-methylpicolinamide]	60 to 79%	100 to 999 nM
Cc1cc(-c2ccc(N(C)c3cc(C(C)C)c4c(c3)n(C)c(=O)n4C)cc2Cl)cnc1C(=O)NCC#Cc1cccc(NC2CCC(=O)NC2=O)c1 (stereo not drawn) [Example A44, 5-(2-chloro-4-((7-isopropyl-1,3-dimethyl-2-oxo-2,3-dihydro-1H-benzo[d]imidazol-5-yl)(methyl)amino)phenyl)-N-(3-(3-((2,6-dioxopiperidin-3-yl)amino)phenyl)prop-2-yn-1-yl)-3-methylpicolinamide]	60 to 79%	100 to 999 nM
Cc1cc(-c2ccc(N(C)c3cc(C(C)C)c4c(c3)n(C)c(=O)n4C)cc2C#N)cnc1C(=O)NCC#Cc1cccc(NC2CCC(=O)NC2=O)c1 (stereo not drawn) [Example A46, 5-(2-cyano-4-((7-isopropyl-1,3-dimethyl-2-oxo-2,3-dihydro-1H-benzo[d]imidazol-5-yl)(methyl)amino)phenyl)-N-(3-(3-((2,6-dioxopiperidin-3-yl)amino)phenyl)prop-2-yn-1-yl)-3-methylpicolinamide]	> 80%	10 to 99 nM
Cc1cc(-c2ncc(N(C)c3cc(C(C)C)c4c(c3)n(C)c(=O)n4C)cc2F)cnc1C(=O)NCC#Cc1cccc(NC2CCC(=O)NC2=O)c1 (stereo not drawn) [Example A47, N-(3-(3-((2,6-dioxopiperidin-3-yl)amino)phenyl)prop-2-yn-1-yl)-3-fluoro-5-((7-isopropyl-1,3-dimethyl-2-oxo-2,3-dihydro-1H-benzo [d]imidazol-5-yl)(methyl)amino)-5′-methyl-[2,3′-bipyridine]-6′-carboxamide]	> 80%	10 to 99 nM
Cc1cc(-c2ccc(N(C)c3cc(C(C)C)c4c(c3)n(C)c(=O)n4C)cc2C(F)(F)F)cnc1C(=O)NCC#Cc1cccc(NC2CCC(=O)NC2=O)c1 (stereo not drawn) [Example A48, N-(3-(3-((2,6-dioxopiperidin-3-yl)amino)phenyl)prop-2-yn-1-yl)-5-(4-((7-isopropyl-1,3-dimethyl-2-oxo-2,3-dihydro-1H-benzo [d]imidazol-5-yl)(methyl)amino)-2-(trifluoromethyl)phenyl)-3-methylpicolinamide]	60 to 79%	10 to 99 nM
COc1cc(-c2ccc(N(C)c3cc(C(C)C)c4c(c3)n(C)c(=O)n4C)cn2)cnc1C(=O)NCC#Cc1cccc(NC2CCC(=O)NC2=O)c1 (stereo not drawn) [Example A49, N-(3-(3-((2,6-dioxopiperidin-3-yl)amino)phenyl)prop-2-yn-1-yl)-5-((7-isopropyl-1,3-dimethyl-2-oxo-2,3-dihydro-1H-benzo [d]imidazol-5-yl) (methyl)amino)-5′-methoxy-[2,3′-bipyridine]-6′-carboxamide]	> 80%	10 to 99 nM
Cc1cc(-c2cnc(N(C)c3cc(C(C)C)c4c(c3)n(C)c(=O)n4C)cn2)cnc1C(=O)NCC#Cc1cccc(NC2CCC(=O)NC2=O)c1 (stereo not drawn) [Example A50, N-(3-(3-((2,6-dioxopiperidin-3-yl)amino)phenyl)prop-2-yn-1-yl)-5-(5-((7-isopropyl-1,3-dimethyl-2-oxo-2,3-dihydro-1H-benzo [d]imidazol-5-yl)(methyl)amino)pyrazin-2-yl)-3-methylpicolinamide]	> 80%	10 to 99 nM
Cc1cc(-c2ccc(N(c3cc(C(C)C)c4c(c3)n(C)c(=O)n4C)C(F)(F)F)cn2)cnc1C(=O)NCC#Cc1cccc(NC2CCC(=O)NC2=O)c1 (stereo not drawn) [Example A52, N-(3-(3-((2,6-dioxopiperidin-3-yl)amino)phenyl)prop-2-yn-1-yl)-5-((7-isopropyl-1,3-dimethyl-2-oxo-2,3-dihydro-1H-benzo [d]imidazol-5-yl) (trifluoromethyl)amino)-5′-methyl-[2,3′-bipyridine]-6′-carboxamide]	60 to 79%	100 to 999 nM
Cc1cc(-c2ccc(Nc3cc4c(c(C(C)C)n3)n(C)c(=O)n4C)cn2)cnc1C(=O)NCC#Cc1ccc2occ(C3CCC(=O)NC3=O)c2c1 (stereo not drawn) [Example A56, N-(3-(3-(2,6-dioxopiperidin-3-yl)benzofuran-5-yl)prop-2-yn-1-yl)-5-((4-isopropyl-1,3-dimethyl-2-oxo-2,3-dihydro-1H-imidazo[4,5-c]pyridin-6-yl)amino)-5′-methyl-[2,3′-bipyridine]-6′-carboxamide]	< 20%	> 1000 nM
